# According to patent US20210038559A1, “CANNABINOIDS AND DERIVATIVES FOR PROMOTING IMMUNOGENICITY OF TUMOR AND INFECTED CELLS” (priority 2018, published 2021):
# Structures can show the parent of a compound that is named as a salt.
# Tested on: MHC-I expression by COLO 205 cells
# Experiment: cells
# Type: cell-based, human
# Conditions: not given
# Description: A panel of synthetic cannabinoids (Cayman Chemical, #9002891) was tested for MHC class I-inducing capability in COLO 205 cells as described above. COLO 205 cells were treated with the compounds at a concentration of 35 μM and evaluated for cell surface MHC class I expression after 48 hours. Cells were harvested, stained with MHC-I mAb W6/32 (Thermo Fisher). MHC-I expression was determined by flow cytometry.
row,Molecule,Induction Fold [Fold]
1,[2-methyl-1-(1-methylhexyl)-1H-indol-3-yl]-1-naphthalenyl-methanone [Example 137],2.22
2,(1-butyl-6-methoxy-1H-indol-3-yl)-1-naphthalenyl-methanone [Example 107],2.39
3,"CCCCCn1cc(Cc2cccc3ccccc23)c2ccccc21 [Example 252, 3-(1-naphthalenylmethyl)-1-pentyl-1H-indole]",1.61

# Same assay, conditions: Homo sapiens, COLO 205, 48 h, MHC-I expression, COLO 205 cells, compounds at 35 μM, 48 hours, flow cytometry (W6/32); read-out: Induction Fold
row,Molecule,fold induction at 35 µM
1,"O=C(c1cccc2ccccc12)c1cn(CCCCCCF)c2ccccc12 [Example 341, (1-(6-fluorohexyl)-1H-indol-3-yl)(naphthalen-1-yl)methanone]",1.18
2,"CCCCCn1cc(C(=O)c2ccccc2I)c2ccccc21 [Example 36, (2-iodophenyl)(1-pentyl-1H-indol-3-yl)-methanone]",3.3
3,"CC(C)(C)C(NC(=O)c1nn(Cc2ccccc2)c2ccccc12)C(N)=O (stereo not drawn) [Example 217, N-(1-amino-3,3-dimethyl-1-oxobutan-2-yl)-1-benzyl-1H-indazole-3-carboxamide]",1.79
4,"CN1CCCCC1Cn1cc(C(=O)c2cc([N+](=O)[O-])ccc2I)c2ccccc21 (stereo not drawn) [Example 7, (2-iodo-5-nitrophenyl)-(1-(1-methylpiperidin-2-ylmethyl)-1H-indol-3-yl)methanone]",5.59
5,"CCCCCn1cc(C(=O)NC(C)(C)c2ccccc2)c2ccccc21 [Example 351, N-(1-methyl-1-phenylethyl)-1-pentyl-1H-indole-3-carboxamide]",1.07
6,"O=C(c1ccc2ccccc2c1)c1cn(CCN2CCOCC2)c2ccccc12 [Example 13, [1-[2-(4-morpholinyl)ethyl]-1H-indol-3-yl]-2-naphthalenyl-methanone]",4.3
7,"O=C(Oc1ccc2cnccc2c1)c1cn(CC2CCCCC2)c2ccccc12 [Example 327, isoquinolin-6-yl 1-(cyclohexylmethyl)-1H-indole-3-carboxylate]",1.24
8,"CCCCn1cc(C(=O)c2ccc(C)c3ccccc23)c2ccccc21 [Example 69, (1-butyl-1H-indol-3-yl)(4-methylnaphthalen-1-yl)methanone]",2.71
9,"CCCCCn1cc(C(=O)c2c(OC)ccc3ccccc23)c2ccccc21 [Example 90, (2-methoxy-1-naphthalenyl)(1-pentyl-1H-indol-3-yl)-methanone]",2.5
10,"CCCCCn1cc(C(=O)Cc2ccccc2Br)c2ccccc21 [Example 120, 2-(2-bromophenyl)-1-(1-pentyl-1H-indol-3-yl)-ethanone]",2.32
11,"O=C(c1cn(CCCCCF)c2ccccc12)N1CCN(Cc2ccccc2)CC1 [Example 324, (4-benzylpiperazin-1-yl)(1-(5-fluoropentyl)-1H-indol-3-yl)methanone, monohydrochloride]",1.26
12,"CC(C)(C)Cn1cc(C(=O)c2ccc3ccccc3c2)c2ccccc21 [Example 168, [1-(2,2-dimethylpropyl)-1H-indol-3-yl]-2-naphthalenyl-methanone]",2.01
13,"CCCCCCCCC(C)(C)c1ccc([C@H]2CCC[C@@H](O)C2)c(O)c1 (relative stereo) [Example 374, cis-5-(1,1-dimethylnonyl)-2-(3-hydroxycyclohexyl)-phenol]",0.49
14,"O=C(Nc1ccc2ccccc2c1)c1cn(CCCCCF)c2ccccc12 [Example 337, 1-(5-fluoropentyl)-N-(naphthalen-2-yl)-1H-indole-3-carboxamide]",1.19
15,"CCCCCn1cc(C(=O)Oc2ccc3cccnc3c2)c2ccccc21 [Example 18, quinolin-7-yl 1-pentyl-1H-indole-3-carboxylate]",4.08
16,"CCC(F)CCn1nc(C(=O)NC(C(N)=O)C(C)C)c2ccccc21 (stereo not drawn) [Example 335, N-(1-amino-3-methyl-1-oxobutan-2-yl)-1-(3-fluoropentyl)-1H-indazole-3-carboxamide]",1.2
17,"CCCC(F)Cn1cc(C(=O)C2C(C)(C)C2(C)C)c2ccccc21 (stereo not drawn) [Example 153, [1-(2-fluoropentyl)-1H-indol-3-yl] (2,2,3,3-tetramethylcyclopropyl)-methanone]",2.11
18,"CCCCCn1nc(C(=O)Oc2cccc3ccccc23)c2ccccc21 [Example 171, naphthalen-1-yl 1-pentyl-1H-indazole-3-carboxylate]",1.99
19,"O=C(Nc1cccc2ccccc12)c1cn(CCCCCF)c2ccccc12 [Example 286, 1-(5-fluoropentyl)-N-(naphthalen-1-yl)-1H-indole-3-carboxamide]",1.45

row,Molecule,fold induction at 35 µM
1,"CCC(C)Cn1cc(C(=O)c2ccc3ccccc3c2)c2ccccc21 (stereo not drawn) [Example 271, (1-(2-methylbutyl)-1H-indol-3-yl)(naphthalen-2-yl)-methanone]",1.54
2,"CCCCCn1nc(C(=O)NC(C(N)=O)C(C)(C)C)c2ccccc21 (stereo not drawn) [Example 76, N-[1-(aminocarbonyl)-2,2-dimethylpropyl]-1-pentyl-1H-indazole-3-carboxamide]",2.61
3,"CCCCCn1cc(C(=O)Oc2cccc3cnccc23)c2ccccc21 [Example 99, isoquinolin-5-yl 1-pentyl-1H-indole-3-carboxylate]",2.43
4,"COC(=O)[C@@H](NC(=O)c1nn(CCCC(C)F)c2ccccc12)C(C)(C)C (stereo partly drawn) [Example 84, methyl (2S)-2-(1-(4-fluoropentyl)-1H-indazole-3-carboxamido)-3,3-dimethylbutanoate]",2.53
5,"CCC(CC)n1cc(C(=O)c2ccc3ccccc3c2)c2ccccc21 [Example 201, [1-(1-ethylpropyl)-1H-indol-3-yl]-2-naphthalenyl-methanone]",1.87
6,"CC(C)(C)C(NC(=O)c1cn(CCCCCF)c2ccccc12)C(N)=O (stereo not drawn) [Example 297, N-[1-(aminocarbonyl)-2,2-dimethylpropyl]-1-(5-fluoropentyl)-1H-indole-3-carboxamide]",1.42
7,"CCCCCn1cc(C(=O)c2cccc3cccc(CC)c23)c2ccccc21 [Example 115, (8-ethylnaphthalen-1-yl)(1-pentyl-1H-indol-3-yl)methanone]",2.35
8,"CCCCCn1cc(C(=O)c2ccc(CC)c3ccccc23)c2ccccc21 [Example 180, (4-ethyl-1-naphthalenyl)(1-pentyl-1H-indol-3-yl)-methanone]",1.93
9,"CCCCCn1cc(C(=O)Cc2cccc(C)c2)c2ccccc21 [Example 165, 1-(1-pentyl-1H-indol-3-yl)-2-(m-tolyl)ethanone]",2.02
10,"CN1CCCC[C@@H]1Cn1cc(C(=O)c2cc([N+](=O)[O-])ccc2I)c2ccccc21 [Example 23, (2-iodo-5-nitrophenyl)[1-[[(2R)-1-methyl-2-piperidinyl]methyl]-1H-indol-3-yl]methanone]",3.64
11,"O=C(Nc1cccc2ccccc12)c1cn(Cc2ccc(F)cc2)c2ccccc12 [Example 330, 1-(4-fluorobenzyl)-N-(naphthalen-1-yl)-1H-indole-3-carboxamide]",1.23
12,"Cc1ccc(C(=O)c2cn(CCCCCF)c3ccccc23)c2ccccc12 [Example 155, [1-(5-fluoropentyl)-1H-indol-3-yl](4-methyl-1-naphthalenyl)-methanone]",2.08
13,"CCCCCn1cc(C(=O)Cc2ccc(C)cc2)c2ccccc21 [Example 181, 2-(4-methylphenyl)-1-(1-pentyl-1H-indol-3-yl)-ethanone]",1.93
14,"O=C(Oc1cccc2cccnc12)c1cn(Cc2ccc(F)cc2)c2ccccc12 [Example 204, 1-[(4-fluorophenyl)methyl]-1H-indole-3-carboxylic acid, 8-quinolinyl ester]",1.87
15,"CC(C)(C)C(NC(=O)c1cc(-c2ccc(F)cc2)nn1CCCCCF)C(N)=O (stereo not drawn) [Example 119, N-[1-(aminocarbonyl)-2,2-dimethylpropyl]-1-(5-fluoropentyl)-3-(4-fluorophenyl)-1H-pyrazole-5-carboxamide]",2.33
16,"CCCCCn1cc(C(=O)NC(C(N)=O)C(C)(C)C)c2ccccc21 (stereo not drawn) [Example 88, N-(1-amino-3,3-dimethyl-1-oxobutan-2-yl)-1-pentyl-1H-indole-3-carboxamide]",2.5
17,"CCOC(=O)[C@@H](NC(=O)c1nn(CCCCCF)c2ccccc12)C(C)C [Example 236, ethyl (1-(5-fluoropentyl)-1H-indazole-3-carbonyl)-L-valinate]",1.7
18,"COc1ccc(CC(=O)c2cn(CCC3CCCCC3)c3ccccc23)cc1 [Example 44, 1-(1-(2-cyclohexylethyl)-1H-indol-3-yl)-2-(4-methoxyphenyl)ethanone]",3.03

# Same assay, conditions: MHC-I expression, COLO 205 cells, compounds at 35 μM, 48 hours, flow cytometry (W6/32)
row,Molecule,Induction Fold [Fold]
1,"O=C(OC12CC3CC(CC(C3)C1)C2)c1nn(CCCCCF)c2ccccc12 [Example 358, (3s,5s,7s)-adamantan-1-yl 1-(5-fluoropentyl)-1H-indazole-3-carboxylate]",1.02
2,"CCCCCn1cc(C(=O)C23CC4CC(CC(C4)C2)C3)c2ccccc21 [Example 245, (1s,3s)-adamantan-1-yl(1-pentyl-1H-indol-3-yl)methanone]",1.66
3,"CCOC(=O)[C@@H](NC(=O)c1nn(Cc2ccc(F)cc2)c2ccccc12)C(C)C [Example 8, ethyl (1-(4-fluorobenzyl)-1H-indazole-3-carbonyl)-1-valinate]",5.50
4,"O=C(NC12CC3CC(CC(C3)C1)C2)c1nn(CCCCCCl)c2ccccc12 [Example 333, N-((3s,5s,7s)-adamantan-1-yl)-1-(5-chloropentyl)-1H-indazole-3-carboxamide]",1.21
5,"CCCCCn1cc(C(=O)c2cccc3ccccc23)c2ccccc21 [Example 71, (1-pentyl-1H-indol-3-yl)-1-naphthalenyl-methanone]",2.69
